Measurements reported in patent publication US6914045B2, “Glycopeptide antibiotics” (Wyeth Holdings Corporation, priority 2001, dated 2005).
Converted amounts (≈) assume the structure as drawn.

Legend:
Assay in all cases: in vitro antibacterial evaluation, MIC by broth dilution
Assay type in all cases: cell-based
Conditions in all cases: broth dilution, 18 hours at 35° C.
Enterococcus sp. = system: Enterococcus sp.
Method in brief: (§1)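 Broth dilution per NCCLS M7-A2 in Mueller-Hinton II medium, inoculum 5×10^5 CFU/mL, antibiotic range 64-0.06 μg/mL. MIC taken as lowest concentration inhibiting growth; Gram-positive panel includes recent clinical isolates resistant to methicillin, penicillin and/or vancomycin.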

Staphylococcus sp. = system: Staphylococcus sp.
Method in brief: as §1

Streptococcus sp. = system: Streptococcus sp.
Method in brief: as §1

Escherichia coli = system: Escherichia coli
Method in brief: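 Broth dilution MIC per NCCLS M7-A2 in Mueller-Hinton II medium, inoculum 5×10^5 CFU/mL, antibiotic range 64-0.06 μg/mL. MIC taken as lowest concentration inhibiting growth.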

Structure (SMILES): CC(c1ccccc1)C1NC(=O)CNC(=O)C(CO)NC(=O)C(C(O)C2CNC(=N)N2C2OC(CO)C(O)C(O)C2O)NC(=O)C(C(O)C2CNC(=N)N2)NC(=O)C(Cc2ccc3oc(SCc4ccc5ccccc5c4)nc3c2)NC1=O (stereo not shown) [Example 46]
- MIC Enterococcus faecalis (ATCC 29212) (Enterococcus sp.; strain ATCC 29212): 8 µg/mL (≈ 6.85 µM)
- MIC Enterococcus faecalis (GC 2242) (Enterococcus sp.; strain GC 2242): 8 µg/mL (≈ 6.85 µM)
- MIC Enterococcus faecium (GC 2243) (Enterococcus sp.; strain GC 2243): 4 µg/mL (≈ 3.42 µM)
- MIC Enterococcus faecalis (GC 2691) (Enterococcus sp.; strain GC 2691): 16 µg/mL (≈ 13.7 µM)
- MIC Enterococcus faecalis (GC 3059) (Enterococcus sp.; strain GC 3059): 32 µg/mL (≈ 27.4 µM)
- MIC Enterococcus faecalis (GC 4552) (Enterococcus sp.; strain GC 4552): 8 µg/mL (≈ 6.85 µM)
- MIC Enterococcus faecalis (GC 4553) (Enterococcus sp.; strain GC 4553): 4 µg/mL (≈ 3.42 µM)
- MIC Enterococcus faecalis (GC 4554) (Enterococcus sp.; strain GC 4554): 16 µg/mL (≈ 13.7 µM)
- MIC Enterococcus faecium (GC 4556) (Enterococcus sp.; strain GC 4556): 16 µg/mL (≈ 13.7 µM)
- MIC Enterococcus faecium (GC 4557) (Enterococcus sp.; strain GC 4557): 8 µg/mL (≈ 6.85 µM)
- MIC Enterococcus avium (GC 4558) (Enterococcus sp.; strain GC 4558): 4 µg/mL (≈ 3.42 µM)
- MIC Enterococcus faecalis (GC 6189) (Enterococcus sp.; strain GC 6189): 16 µg/mL (≈ 13.7 µM)
- MIC Staphylococcus aureus (ATCC 29213) (Staphylococcus sp.; strain ATCC 29213): 8 µg/mL (≈ 6.85 µM)
- MIC Staphylococcus aureus (GC 1131) (Staphylococcus sp.; strain GC 1131): 8 µg/mL (≈ 6.85 µM)
- MIC Staphylococcus aureus (GC 3051) (Staphylococcus sp.; strain GC 3051): 8 µg/mL (≈ 6.85 µM)
- MIC Staphylococcus aureus (GC 3053) (Staphylococcus sp.; strain GC 3053): 8 µg/mL (≈ 6.85 µM)
- MIC Staphylococcus aureus (GC 4541) (Staphylococcus sp.; strain GC 4541): 8 µg/mL (≈ 6.85 µM)
- MIC Staphylococcus aureus (GC 4542) (Staphylococcus sp.; strain GC 4542): 8 µg/mL (≈ 6.85 µM)
- MIC Staphylococcus aureus-SMITH (GC 4543) (Staphylococcus sp.; strain GC 4543): 4 µg/mL (≈ 3.42 µM)
- MIC Staphylococcus aureus (GC 4544) (Staphylococcus sp.; strain GC 4544): 8 µg/mL (≈ 6.85 µM)
- MIC Staphylococcus aureus (GC 4545) (Staphylococcus sp.; strain GC 4545): 8 µg/mL (≈ 6.85 µM)
- MIC Staphylococcus haemolyticus (GC 4546) (Staphylococcus sp.; strain GC 4546): 8 µg/mL (≈ 6.85 µM)
- MIC Coagulase Negative Staphylococcus (GC 4547) (Staphylococcus sp.; strain GC 4547): 4 µg/mL (≈ 3.42 µM)
- MIC Coagulase Negative Staphylococcus (GC 4548) (Staphylococcus sp.; strain GC 4548): 8 µg/mL (≈ 6.85 µM)
- MIC Coagulase Negative Staphylococcus (GC 4549) (Staphylococcus sp.; strain GC 4549): 2 µg/mL (≈ 1.71 µM)
- MIC Coagulase Negative Staphylococcus (GC 4551) (Staphylococcus sp.; strain GC 4551): 4 µg/mL (≈ 3.42 µM)
- MIC Streptococcus pneumoniae (ATCC 6301) (Streptococcus sp.; strain ATCC 6301): 8 µg/mL (≈ 6.85 µM)
- MIC Streptococcus pneumoniae (GC 1894) (Streptococcus sp.; strain GC 1894): 8 µg/mL (≈ 6.85 µM)
- MIC Streptococcus pyogenes (GC 4563) (Streptococcus sp.; strain GC 4563): 1 µg/mL (≈ 0.856 µM)
- MIC Streptococcus agalactiae (GC 4564) (Streptococcus sp.; strain GC 4564): 8 µg/mL (≈ 6.85 µM)
- MIC Streptococcus pneumoniae (GC 4565) (Streptococcus sp.; strain GC 4565): 8 µg/mL (≈ 6.85 µM)
- MIC Escherichia coli (ATCC 25922) (Escherichia coli; strain ATCC 25922): 64 µg/mL (≈ 54.8 µM)
- MIC Escherichia coli (GC 4559) (Escherichia coli; strain GC 4559): 64 µg/mL (≈ 54.8 µM)
- MIC Escherichia coli (GC 4560) (Escherichia coli; strain GC 4560): 16 µg/mL (≈ 13.7 µM)
